These results are taken from patent publication US8198217B2, “Composition for weeding” (Kumiai Chemical Industry Co., Ltd., priority 2007, dated 2012).

One data set concerns corn (ZEAMX). In words: Weed control effect test by stems-and-leaves treatment: phytotoxicity to corn. It is filed as in vivo. The settings on record: 30th day from treatment. As to the method:
A plastic pot of 1/2000 are area was each filled with a dry-field soil where the respective seeds of corn (ZEAMX), pitted morningglory (IPOLA), velvet leaf (ABUTH) and lamb's-quarters (CHEAL) were sowed and tuberous roots of yellow nutsedge (CYPES) were buried followed by pooling of water from the bottom part of the pot. These seeds and tuberous roots were grown in a greenhouse. […] Thereafter, growing was continued in the glasshouse to record the weed control effect and the extent of phytotoxicity on the 30th day from the treatment as indexes according to the criteria given in Table 1. The dosages are given in terms of the amount of the active ingredients per hectare (ha).

The test system of the next data set is lamb's-quarters (CHEAL). Briefly: Weed control effect test by stems-and-leaves treatment. The settings on record: 30th day from treatment. It is filed as in vivo. On the procedure:
(§1) A plastic pot of 1/2000 are area was each filled with a dry-field soil where the respective seeds of corn (ZEAMX), pitted morningglory (IPOLA), velvet leaf (ABUTH) and lamb's-quarters (CHEAL) were sowed and tuberous roots of yellow nutsedge (CYPES) were buried followed by pooling of water from the bottom part of the pot. These seeds and tuberous roots were grown in a greenhouse. On the day when the pitted morningglory had reached its 4 leaves stage, a stems-and-leaves treatment was undertaken on the whole plant bodies with agents each prepared by dilution of a specified amount of the water-dispersible granules prepared in the same manner as in Example 3, 4 and 5 with water, respectively. Thereafter, growing was continued in the glasshouse to record the weed control effect and the extent of phytotoxicity on the 30th day from the treatment as indexes according to the criteria given in Table 1. The dosages are given in terms of the amount of the active ingredients per hectare (ha).

Data set [1] concerns pitted morningglory (IPOLA). The data set is described as above. It is filed as in vivo. The following applies: 30th day from treatment. As to the method: as §1
For another data set, the system named is velvet leaf (ABUTH). The data set is described as above. The settings on record: 30th day from treatment. It is filed as in vivo. As to the method:
as §1

Another data set concerns yellow nutsedge (CYPES). Described as above. It is filed as in vivo. The settings on record: 30th day from treatment. As to the method: as §1
The test system of the next data set is paddy rice plants (Or). In words: Weed control effect test on paddy fields: phytotoxicity to paddy rice. It is filed as in vivo. The settings on record: applied onto water surface, 25th day from treatment. The text has this: (§2) A plastic pot of 1/20000 are area was each filled with a paddy field soil which was manured and shuffled followed by sowing of the respective seeds of early watergrass (ECHOR), heartshape false pickerelweed (MOOVA), rock's bulrush (SCIJO) and marsh dayflower (ANEKE) and burying of tuberous roots of tidalmarsh flatsedge (CYPSE) followed by pooling of water in a water depth of 1 cm. And, paddy rice plants (Or) at the two-leaves stage were transplanted to the same pot and grown in a greenhouse. Thereafter, on the day when the early watergrass had reached its 2.5 leaves stage, pooling of water was undertaken in order to make the water depth to 3 cm and agents each prepared by dilution of a specified amount of the wettable powder prepared in the same manner as in Example 1 and 2 with water was applied onto the water surface, respectively. Then, growing was continued keeping the pooling water depth of 3 cm to record the weed control effect and the extent of phytotoxicity on the 25th day from the treatment as indexes according to the criteria given in Table 1. The dosages are given in terms of the amount of the active ingredients per 10 ares area.

For another data set, the system named is early watergrass (ECHOR). In words: Weed control effect test on paddy fields. It is filed as in vivo, Echinochloa oryzicola. The following applies: applied onto water surface, 25th day from treatment.
Source text: as §2

The subject of data set [2] is heartshape false pickerelweed (MOOVA). Briefly: Weed control effect test on paddy fields. It is filed as in vivo, Monochoria vaginalis. The settings on record: applied onto water surface, 25th day from treatment.
Source text: as §2

The test system of another data set is rock's bulrush (SCIJO). Briefly: Weed control effect test on paddy fields. The following applies: applied onto water surface, 25th day from treatment. It is filed as in vivo, Scirpus juncoides.
Source text: as §2

Data set [3] has as its system tidalmarsh flatsedge (CYPSE). Briefly: Weed control effect test on paddy fields. It is filed as in vivo, Cyperus serotinus. The settings on record: applied onto water surface, 25th day from treatment.
Source text: as §2

A further data set has as its system marsh dayflower (ANEKE). In words: Weed control effect test on paddy fields. The settings on record: applied onto water surface, 25th day from treatment. It is filed as in vivo.
Source text: as §2

`CCNc1nc(Cl)nc(NC(C)C)n1` [atrazine]: in the data set on corn (ZEAMX) (1000 g a.i./ha), the “extent of phytotoxicity index, ZEAMX” value is 0 (less than 5% growth inhibition). In addition, the “weed control effect index, CHEAL” value in the data set with lamb's-quarters (CHEAL) (1000 g a.i./ha) was 8 (not less than 75% but less than 85% growth inhibition). Besides, in [1] (1000 g a.i./ha), the “weed control effect index, IPOLA” value is 3 (not less than 25% but less than 35% growth inhibition). The “weed control effect index, ABUTH” value with velvet leaf (ABUTH) (1000 g a.i./ha) is given as 3 (not less than 25% but less than 35% growth inhibition). In the data set on yellow nutsedge (CYPES) (1000 g a.i./ha), the “weed control effect index, CYPES” value is recorded as 3 (not less than 25% but less than 35% growth inhibition).

On to `COCc1cccc(C(O)c2nc(OC)cc(OC)n2)c1NS(=O)(=O)C(F)F` (stereo not shown) [Compound A-1, 2-[(4,6-dimethoxypyrimidin-2-yl)hydroxymethyl]-6-methoxymethyl-N-difluoromethanesulfonylanilide], for which the “extent of phytotoxicity index, OR” value with paddy rice plants (Or) (3 g a.i./10a) is reported as 0 (less than 5% growth inhibition). Moreover, the “weed control effect index, ECHOR” value in the data set on early watergrass (ECHOR) (3 g a.i./10a) is reported as 7 (not less than 65% but less than 75% growth inhibition). The “weed control effect index, MOOVA” value in data set [2] (3 g a.i./10a) is given as 7 (not less than 65% but less than 75% growth inhibition). For the same compound, the “weed control effect index, SCIJO” value in the data set with rock's bulrush (SCIJO) (3 g a.i./10a) was 8 (not less than 75% but less than 85% growth inhibition). In data set [3] (3 g a.i./10a), the “weed control effect index, CYPSE” value is reported as 8 (not less than 75% but less than 85% growth inhibition). Further, in the data set on marsh dayflower (ANEKE) (3 g a.i./10a), the “weed control effect index, ANEKE” value is 2 (not less than 15% but less than 25% growth inhibition). In the data set on corn (ZEAMX) (10 g a.i./ha), the “extent of phytotoxicity index, ZEAMX” value is given as 0 (less than 5% growth inhibition). Further, in the data set with lamb's-quarters (CHEAL) (10 g a.i./ha), the “weed control effect index, CHEAL” value was 1 (not less than 5% but less than 15% growth inhibition). For the same compound, in [1] (10 g a.i./ha), the “weed control effect index, IPOLA” value is 6 (not less than 55% but less than 65% growth inhibition). For the same compound, the “weed control effect index, ABUTH” value in the data set on velvet leaf (ABUTH) (10 g a.i./ha) is 5 (not less than 45% but less than 55% growth inhibition). Also, the “weed control effect index, CYPES” value in the data set on yellow nutsedge (CYPES) (10 g a.i./ha) was 7 (not less than 65% but less than 75% growth inhibition).

Turning to `CCCc1ccc2nc(Cl)c(S(=O)(=O)NC(=O)Nc3nc(OC)cc(OC)n3)n2n1` [TH-547, 1-(2-chloro-6-propylimidazo[1,2-b]pyridazin-3-ylsulfonyl)-3-(4,6-dimethoxypyrimidin-2-yl)urea], the “extent of phytotoxicity index, OR” value in the data set on paddy rice plants (Or) (7 g a.i./10a) was 0 (less than 5% growth inhibition). Further, the “weed control effect index, ECHOR” value in the data set on early watergrass (ECHOR) (7 g a.i./10a) is 7 (not less than 65% but less than 75% growth inhibition). Further, in [2] (7 g a.i./10a), the “weed control effect index, MOOVA” value was 7 (not less than 65% but less than 75% growth inhibition). Also, the “weed control effect index, SCIJO” value in the data set on rock's bulrush (SCIJO) (7 g a.i./10a) was 6 (not less than 55% but less than 65% growth inhibition). In addition, the “weed control effect index, CYPSE” value in [3] (7 g a.i./10a) was 6 (not less than 55% but less than 65% growth inhibition). The “weed control effect index, ANEKE” value in the data set with marsh dayflower (ANEKE) (7 g a.i./10a) is given as 4 (not less than 35% but less than 45% growth inhibition).

In the case of `COC(=O)CSc1cc(/N=c2\sc(=O)n3n2CCCC3)c(F)cc1Cl` [fluthiacet-methyl], the “extent of phytotoxicity index, ZEAMX” value in the data set with corn (ZEAMX) (5 g a.i./ha) is given as 0 (less than 5% growth inhibition). For the same compound, the “weed control effect index, CHEAL” value with lamb's-quarters (CHEAL) (5 g a.i./ha) is given as 8 (not less than 75% but less than 85% growth inhibition). Moreover, in [1] (5 g a.i./ha), the “weed control effect index, IPOLA” value is given as 3 (not less than 25% but less than 35% growth inhibition). Further, the “weed control effect index, ABUTH” value in the data set on velvet leaf (ABUTH) (5 g a.i./ha) is reported as 9 (not less than 85% but less than 95% growth inhibition). Besides, the “weed control effect index, CYPES” value with yellow nutsedge (CYPES) (5 g a.i./ha) is 2 (not less than 15% but less than 25% growth inhibition).

Take `COc1cc(OC)nc(NC(=O)NS(=O)(=O)c2ncccc2C(=O)N(C)C)n1` [nicosulfuron]: in the data set on corn (ZEAMX) (35 g a.i./ha), the “extent of phytotoxicity index, ZEAMX” value is recorded as 0 (less than 5% growth inhibition). In addition, the “weed control effect index, CHEAL” value in the data set with lamb's-quarters (CHEAL) (35 g a.i./ha) is given as 8 (not less than 75% but less than 85% growth inhibition). In data set [1] (35 g a.i./ha), the “weed control effect index, IPOLA” value is 3 (not less than 25% but less than 35% growth inhibition). The “weed control effect index, ABUTH” value in the data set with velvet leaf (ABUTH) (35 g a.i./ha) is listed as 2 (not less than 15% but less than 25% growth inhibition). Further, the “weed control effect index, CYPES” value with yellow nutsedge (CYPES) (35 g a.i./ha) is on record as 4 (not less than 35% but less than 45% growth inhibition).

In the case of `CCC1(CC2(c3cccc(Cl)c3)CO2)C(=O)c2ccccc2C1=O` (stereo not shown) [indanofan], the “weed control effect index, ECHOR” value with early watergrass (ECHOR) (15 g a.i./10a) is given as 6 (not less than 55% but less than 65% growth inhibition). Further, the “weed control effect index, MOOVA” value in data set [2] (15 g a.i./10a) is 5 (not less than 45% but less than 55% growth inhibition). In addition, the “weed control effect index, SCIJO” value in the data set with rock's bulrush (SCIJO) (15 g a.i./10a) is given as 3 (not less than 25% but less than 35% growth inhibition). The “weed control effect index, CYPSE” value in data set [3] (15 g a.i./10a) is on record as 1 (not less than 5% but less than 15% growth inhibition). Besides, the “weed control effect index, ANEKE” value in the data set with marsh dayflower (ANEKE) (15 g a.i./10a) was 5 (not less than 45% but less than 55% growth inhibition).
